From patent US20040247525A1, “Brain progenitor cell-based assay, and related methods and compositions” (priority 2003, published 2004)
“Also recorded” adds a separate entry of the source. Like-named read-outs stand apart in the source and are kept apart here.

Assays:
[1] = tested on: 5-HT1A receptor knockout (KO) mice; assay: Novelty-suppressed feeding test (NSF) in 5-HT1A knockout mice; format: in vivo, mouse
Protocol: The Novelty-suppressed feeding test was carried out during a 5-min period as previously described (Santarelli et al., 2001). Briefly, the testing apparatus consisted of a plastic box, 50×50×20 cm. The floor was covered with approximately 2 cm of wooden bedding. Twenty-four hours prior to behavioral testing, all food was removed from the home cage. At the time of testing, a single pellet of food (regular chow) was placed on a white paper platform positioned in the center of the box. An animal was placed in a corner of the maze and a stopwatch was immediately started. The measure of interest (chewing) was scored when the mouse was sitting on its haunches and biting with the use of forepaws. Immediately after this test, mice were transferred to their home cage and the amount of food consumed in 5 min was measured (home cage food consumption). In knockout experiments, mice were genotyped after behavioral testing to remove the possibility of investigator bias. Mice were always tested during the light period.
Among the 14 known 5-HT receptor subtypes, the 5-HT1A receptor has been most consistently implicated in the modulation of mood and anxiety-related behaviors (Gross et al., 2000; Sargent et al., 2000). To determine whether this receptor is required to mediate the effects of serotonin- and noradrenaline-enhancing ADs, we compared the effects of these drugs in wild type (WT) mice and in mice lacking the 5-HT1A receptor (5-HT1A receptor knockout (KO) mice). WT and KO mice were treated with fluoxetine, imipramine, desipramine, or vehicle for a period of 28 days before being tested in the NSF paradigm.

[2] = tested on: BrdU-positive cells in the dentate gyrus of 5-HT1A receptor KO mice; assay: BrdU labeling of cell proliferation in the dentate gyrus of 5-HT1A knockout mice; conditions: for BrdU-labeled cells in the SGZ (cell proliferation): 8-OH-DPAT chronic (28 days, 1 mg/kg/day mini pumps), vs sham, 1 mg/kg/day; for BrdU-positive cells surviving 28 days after BrdU injection: 5-HT1A KO mice, chronic treatment, sacrificed 28 days after BrdU
Protocol: Knockout and wild-type 129/SvEv age-matched adult male mice (12-20 weeks) derived from heterozygote crossings (Phillips et al., 1999) were used in all experiments that included 5-HT1A knockout mice. […] Mice were housed 4-5 per cage in a 12-h (06:00-18:00) light-dark colony room at 22° C. with freely available food and water.
To assess the effect of antidepressant or X-irradiation treatments on the number of BrdU-positive cells, mice were administered BrdU (4×75 mg/kg i.p., dissolved in saline, every 2 hr; Roche Diagnostic, Indianapolis, Ind.) and sacrificed 24 hr after the last BrdU injection (FIG. 2A, 3B, 5C-D). To determine cell survival and phenotype after the various antidepressant treatments, fluoxetine, imipramine and vehicle-treated mice were allowed to survive for 28 days after the last BrdU injection (FIG. 2C-D, 3C). After deep anesthesia with a mixture of ketamine/xylazine (100 mg/kg and 7 mg/kg respectively),, mice were transcardially perfused (cold saline for 2 min, followed by 4% cold paraformaldehyde/0.1 M phosphate buffer for 5 min) and brains were collected for immunohistochemistry. All brains were post-fixed overnight in 4% paraformaldehyde at 4° C., then cryoprotected in 30% sucrose and stored at 4° C. Serial sections of the brains were cut (35 μm sections) through the entire hippocampus (plates 41-61; Franklin and Paxinos, 1997) on a cryostat and stored in PBS with 0.1% NaN3. For DAB staining, sections were slide-mounted and boiled in citric acid, pH 6.0, for 5 min, rinsed with PBS, and treated with 0.01% trypsin in Tris/CaC12 for 10 min. Brain sections were incubated for 30 min with 2N HCl and blocked with 5% NGS (Jackson ImmunoResearch, West Grove, Pa.). Sections were then incubated over night at room temperature with anti-mouse BrdU (1:100; Becton-Dickinson). After washing with PBS, sections were incubated for 1 hr with secondary antibody (1:200 biotinylated goat anti-mouse; Sigma-Aldrich, St. Louis, Mo.) followed by amplification with an avidin-biotin complex (Vector Laboratories). The staining was visualized with DAB (Sigma-Aldrich, St. Louis, Mo.). For fluorescent double-labeling, the DNA-denaturation procedure consisted of the following steps: 2 hr incubation in 50% formamide-2×SSC at 65° C., 5 min rinse in 2×SSC, 30 min incubation in 2N HCl at 37° C., and 10 min rinse in 0.1 M boric acid, pH 8.5. Sections were then incubated in TBS-0.1% Triton X-100 (Tx)-5% normal donkey serum (NDS) for 30 min, followed by anti-rat BrdU primary antibody (1:100; Accurate Westbury, N.Y. or Serotec, Oxford, UK) in TBS/NDS/Tx for 24 hrs at 4° C. in combination with either a mouse monoclonal antibody to NeuN (1:500; Chemicon, Temecula, Calif.) or a rabbit polyclonal antibody to GFAP (1:800; DAKO, Carpinteria, Calif.). The fluorescent secondary antibodies used were biotin-conjugated donkey anti-rat (1:200) plus streptavidin Cy2 (1:200), donkey anti-mouse. Cy3 (1:500), or donkey anti-rabbit Cy3 (1:500) (Jackson ImmunoResearch, West Grove, Pa.). Fluorescent images were taken with a Bio-Rad MRC 1000 confocal laser scanning system coupled to a Zeiss Axiovert 100 inverted microscope. For each image acquisition, a Kalman average of five frames was used. For quantification of BrdU/NeuN or BrdU/GFAP double-labeled cells, at least 50 BrdU-positive cells per animal were analyzed using Z-plane sectioning (1 μm steps).
In this set of experiments, wild type and 5-HT1A receptor KO mice were injected with BrdU following 27 days of treatment with fluoxetine, imipramine, or vehicle. To assess the effect of AD treatment on cell proliferation, one group of mice was sacrificed 24 hours after BrdU injection and sections containing the dentate gyrus were analyzed by immunohistochemistry.

129/SvEv mice = assay: Novelty-suppressed feeding test (NSF); format: in vivo, mouse
Protocol: Haloperidol, an antipsychotic that antagonizes D2 dopamine receptors, was used as a negative control because it is devoid of antidepressant activity in humans. NSF performance was assessed after either 5 or 28 days of oral drug administration.

[3] = tested on: BrdU-positive cells in the dentate gyrus; assay: BrdU labeling of cell proliferation and neurogenesis in the dentate gyrus; format: in vivo, mouse; conditions: for BrdU-labeled cells in the SGZ (cell proliferation): 8-OH-DPAT chronic (28 days, 1 mg/kg/day mini pumps), WT (+/+) mice, vs sham, 1 mg/kg/day; for BrdU-positive cells surviving 28 days after BrdU injection: wild type mice, chronic treatment, sacrificed 28 days after BrdU
[4] = mouse, in vivo, po
Protocol: Fluoxetine (Eli Lilly, Indianapolis, Ind.), Imipramine (Sigma-Aldrich, St. Louis, Mo.), Desipramine (Sigma-Aldrich, St. Louis, Mo.) and Haloperidol (Sigma-Aldrich, St. Louis, Mo.) were dissolved in tap water at a concentration of 80, 160, 160, and 8 mg/L, respectively. These concentration were established based on the average drinking amount and average weight of the mice used in the study to achieve a final dose of 10 (fluoxetine), 20 (imipramine and desipramine) and 1 (haloperidol) mg/kg/day. […] Vehicle animals received tap water. 8-hydroxy-2-(di-n-propylamino) tetralin (8-OH-DPAT, Sigma-Aldrich, St. Louis, Mo.) was dissolved in sterile saline (0.9% NaCl) at a concentration of 4.5 mg/ml, and delivered through Alzet osmotic mini-pumps (model 2004, Alzet, Cupertino, Calif.) implanted subcutaneously 28 days prior to behavioral testing. The final average dose delivered was 1 mg/kg/day. Sham mice were implanted with mini-pumps containing sterile saline.

BALB/c mice = assay: Chronic unpredictable stress paradigm (CUS); format: in vivo, mouse; conditions: for state of the coat (fur) in CUS: fluoxetine 10 mg/kg/day i.p. from week 3, end of fifth week; for weight loss induced by stress in CUS / grooming latency in CUS: fluoxetine 10 mg/kg/day i.p.; for weight loss induced by stress in CUS: data not shown; for grooming latency in CUS: sixth week, after sucrose solution
Protocol: The stress regimen used is a variant of the chronic mild stress procedures described by Willner et al. (Willner et al., 1992). Mice were subjected to various and repeated unpredictable stressors for a period of five weeks (Griebel et al., 2002). The different stressors used were: alterations of the bedding (repeated sawdust changing, removal of sawdust, damp sawdust, substitution of sawdust with 37° C. water); cage tilting (45°); predator sounds (15 min.); cage shift (mice were positioned in the empty cage of another male); light to dark or dark to light shifts (four light/dark successions of 30 min every 24 hours); reversal of the light/dark cycle. The fluoxetine treatment (10 mg/kg/day, i.p.) started at the beginning of the third week. The state of the coat was assessed at the end of the stress regimen (end of fifth week). The total score resulted from the sum of the score of seven different body parts: head, neck, dorsal coat, ventral coat, tail, forepaws and the hindpaws. A score of 0 was given for a well-groomed coat and 1 for a spoiled coat (see Griebel, 2002). The grooming latency was assessed at the end of the sixth week. This test consisted in squirting 200 μl of a 10% sucrose solution on the mouse's snout. The latency to start grooming was then recorded.
The CUS protocol consists of the sequential application of a number of stressors, presented in a varied and unpredictable manner during 5 weeks. The continued application of these stressors produces a deterioration in the state of the coat, an impaired grooming response, and weight loss (Griebel et al., 2002; Willner et al., 1992). ADs such as fluoxetine can reverse these stress-induced effects after chronic, but not acute, administration (Griebel et al., 2002; Willner et al., 1992).
Sham and irradiated mice were subjected to five weeks of CUS, beginning two weeks after the final X-ray dose, and half of the animals in each group were administered fluoxetine (10 mg/kg/day, i.p.) from weeks 3-6. The state of each animal's fur was assessed at the end of the stress period, and assigned a score based on observations from several body regions (see methods). Fluoxetine treatment was continued for one more week, after which we measured the latency to begin grooming following application of a sucrose solution to the head of each animal.

[5] = tested on: dentate gyrus (DG) of the rat hippocampus; conditions: Malberg et al., 2000; cited from earlier work
[6] = 28 days via drinking water, 5-HT1A knockout (−/−) mice, vs vehicle
[7] = 28 days via drinking water, fluoxetine 10, imipramine 20, desipramine 20, haloperidol 1 mg/kg/day, wild-type mice, vs vehicle
[8] = 5-day treatment via drinking water, vs vehicle
[9] = 28 days, X-irradiated mice (3 x 5 Gy to hippocampus), vs vehicle
[10] = 28 days, sham (non-irradiated) mice, vs vehicle

CCCN(CCC)C1CCc2cccc(O)c2C1 (stereo not drawn) [8-OH-DPAT]
latency to feed in NSF ([1]; 28 days, subcutaneous osmotic mini pumps, 1 mg/kg/day, 5-HT1A knockout (−/−), vs sham, 1 mg/kg/day): ineffective
BrdU-labeled cells in the SGZ (cell proliferation) ([2]; 5-HT1A KO (−/−) mice): not observed
BrdU-labeled cells in the SGZ (cell proliferation) ([2]; 5-HT1A KO (−/−) mice, listed as DPAT): not −/− mice
latency to feed in NSF (129/SvEv mice; 28 days, subcutaneous osmotic mini pumps, 1 mg/kg/day, wild type (+/+), vs sham, 1 mg/kg/day): significantly decreased the latency to feed; also recorded: significant decrease in the latency to feed
BrdU-labeled cells in the SGZ (cell proliferation) [3]: caused an increase in cell proliferation
BrdU-labeled cells in the SGZ (cell proliferation) ([3]; listed as DPAT): DPAT-induced increases in BrdU-labeled cells

CNCCCN1c2ccccc2CCc2ccccc21 [desipramine, Desipramine]
latency to feed in NSF [1, 6]: still responsive; also recorded: effective
time by which steady serum levels had been achieved ([4]; 129/SvEv): ≤ 5 days
latency to feed in NSF (129/SvEv mice; [7]): significant decreases in the latency to feed; also recorded: significantly decreased the latency to feed

CNCCC(Oc1ccc(C(F)(F)F)cc1)c1ccccc1 (stereo not drawn) [fluoxetine, Fluoxetine]
latency to feed in NSF [1, 6]: insensitive
latency to feed in NSF ([1]; 28 days via drinking water, 5-HT1A knockout (−/−) mice, vs vehicle, listed as Fluoxetine): only imipramine and desipramine were effective
increase in BrdU-labeled cells in the dentate gyrus ([2]; 5-HT1A KO (−/−) mice, 27 days (4 weeks) treatment, sacrificed 24 hours after BrdU, vs vehicle): no effect; also recorded: effective only in +/+ mice
BrdU-positive cells surviving 28 days after BrdU injection ([2]; vs vehicle): not in KO
state of the coat (fur) in CUS (BALB/c mice; X-irradiated mice): absent; also recorded: Irradiation prevented the improvement of the state of the coat
state of the coat (fur) in CUS (BALB/c mice; sham mice): significantly improved the state of the fur; also recorded: significant differences between the fluoxetine-treated sham group and all the others
weight loss induced by stress in CUS (BALB/c mice; X-irradiated mice): irradiation blocked this effect
grooming latency in CUS (BALB/c mice; X-irradiated mice): X-irradiation blocked this effect
weight loss induced by stress in CUS (BALB/c mice; sham mice): trend to reverse the weight loss
grooming latency in CUS (BALB/c mice; sham mice): decreased; also recorded: decrease in the latency to groom
neurogenesis in the dentate gyrus [5]: increase neurogenesis
time by which steady serum levels had been achieved ([4]; 129/SvEv): ≤ 5 days
latency to feed in NSF (129/SvEv mice; [8]): no effect
latency to feed in NSF (129/SvEv mice; [7]): significant decreases in the latency to feed
latency to feed in NSF (129/SvEv mice; 28 days via drinking water, fluoxetine 10, imipramine 20, desipramine 20, haloperidol 1 mg/kg/day, wild-type mice, vs vehicle, listed as Fluoxetine): significantly decreased the latency to feed
latency to feed in NSF (129/SvEv mice; [9]): no such anxiolytic-like effect
latency to feed in NSF (129/SvEv mice; [10]): significant reduction in the latency to feed
cell proliferation (BrdU) ([3]; chronic fluoxetine, X-irradiated animals): no effect
cell proliferation (BrdU) in the SGZ ([3]; chronic fluoxetine, non-irradiated mice): increased cell proliferation
cell proliferation (BrdU) in the SVZ ([3]; chronic fluoxetine, subventricular zone): no effect
number of BrdU-positive cells in the DG ([3]; fluoxetine 5 days, sacrificed 24 hours after BrdU, vs vehicle): No significant effect
increase in BrdU-labeled cells in the dentate gyrus ([3]; wild type (+/+) mice, 27 days (4 weeks) treatment, sacrificed 24 hours after BrdU, vs vehicle): two-fold increase; also recorded: effective only in +/+ mice
BrdU-positive cells surviving 28 days after BrdU injection ([3]; vs vehicle): had an effect in WT

O=C(CCCN1CCC(O)(c2ccc(Cl)cc2)CC1)c1ccc(F)cc1 [haloperidol, Haloperidol]
latency to feed in NSF (129/SvEv mice; 28 days via drinking water, fluoxetine 10, imipramine 20, desipramine 20, haloperidol 1 mg/kg/day, wild-type mice, vs vehicle, listed as Haloperidol): ineffective

CN(C)CCCN1c2ccccc2CCc2ccccc21 [imipramine, Imipramine]
latency to feed in NSF [1, 6]: still responsive; also recorded: effective
BrdU-positive cells surviving 28 days after BrdU injection ([2]; vs vehicle): effective in both genotypes
time by which steady serum levels had been achieved ([4]; 129/SvEv): ≤ 5 days
latency to feed in NSF (129/SvEv mice; [8]): no effect
latency to feed in NSF (129/SvEv mice; [7]): significant decreases in the latency to feed; also recorded: significantly decreased the latency to feed
latency to feed in NSF (129/SvEv mice; [9]): no such anxiolytic-like effect
latency to feed in NSF (129/SvEv mice; [10]): significant reduction in the latency to feed
BrdU-positive cells surviving 28 days after BrdU injection ([3]; vs vehicle): effective in both genotypes

NCCC(Oc1ccc(C(F)(F)F)cc1)c1ccccc1 (stereo not drawn) [nor- fluoxetine]
time by which steady serum levels had been achieved [4]: ≤ 5 days
